Reference: ChEMBL document CHEMBL1201862, “PubChem BioAssay data set” (2004)
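1) Cells in 96-well plates. 2) Compound, 48 h, 5 concentrations. 3) Linear interpolation between surrounding doses. 4) Unreached endpoint = highest concentration. GI50: concentration for 50% inhibition of growth.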 Activity calls are given as the source filed them. Cut-off read from the data, not from the text of the source: active = GI50 up to about 1.1 µM and inactive = higher.

Tests used:
Assay in all cases: NCI-60 cell line screen, 48 h
786-0 = test system: 786-0
A549 = test system: A549
DU-145 = test system: DU-145
EKVX = test system: EKVX
HCT-116 = test system: HCT-116
HOP-92 = test system: HOP-92
HT-29 = test system: HT-29
LOX IMVI = test system: LOX IMVI
LXFL 529 = test system: LXFL 529
MDA-N = test system: MDA-N
NCI-H23 = test system: NCI-H23
OVCAR-8 = test system: OVCAR-8
PC-3 = test system: PC-3
RPMI-8226 = test system: RPMI-8226
SF-539 = test system: SF-539
SK-MEL-2 = test system: SK-MEL-2
SK-OV-3 = test system: SK-OV-3
SN12C = test system: SN12C
SNB-19 = test system: SNB-19
UACC-62 = test system: UACC-62

| SMILES | GI50 (786-0) | GI50 (A549) | GI50 (DU-145) | GI50 (EKVX) | GI50 (HCT-116) | GI50 (HOP-92) | GI50 (HT-29) | GI50 (LOX IMVI) | GI50 (LXFL 529) | GI50 (MDA-N) | GI50 (NCI-H23) | GI50 (OVCAR-8) | GI50 (PC-3) | GI50 (RPMI-8226) | GI50 (SF-539) | GI50 (SK-MEL-2) | GI50 (SK-OV-3) | GI50 (SN12C) | GI50 (SNB-19) | GI50 (UACC-62) |
| --- | --- | --- | --- | --- | --- | --- | --- | --- | --- | --- | --- | --- | --- | --- | --- | --- | --- | --- | --- | --- |
| Nc1nccc2c1ncn2C1C=C(CO)C(O)C1O (stereo not given) | 60.1 µM (inactive) | 98.4 µM (inactive) | > 100 µM (inactive) | > 94.6 µM (inactive) | 1.28 µM (inactive) | 70.1 µM (inactive) | 6.37 µM (inactive) | 27.5 µM (inactive) | > 89.1 µM (inactive) | 2.99 µM (inactive) | 68.7 µM (inactive) | 41.8 µM (inactive) | > 100 µM (inactive) | 6.31 µM (inactive) | 11.8 µM (inactive) | 91.6 µM (inactive) | > 100 µM (inactive) | 74.3 µM (inactive) | 62.7 µM (inactive) | 11.5 µM (inactive) |
| Cc1c(C)c(CC(=O)N2CC2)c(C)c(C)c1CC(=O)N1CC1 | 3.56 µM (inactive) | 7.28 µM (inactive) | 2.1 µM (inactive) | 23.2 µM (inactive) | 9.02 µM (inactive) | 9.48 µM (inactive) | 6.93 µM (inactive) | 5.19 µM (inactive) | 14.1 µM (inactive) | 13.8 µM (inactive) | 2.77 µM (inactive) | 10.2 µM (inactive) | 16 µM (inactive) | 10.6 µM (inactive) | 3.52 µM (inactive) | 16 µM (inactive) | 16.8 µM (inactive) | 4.03 µM (inactive) | 10.6 µM (inactive) | 3.33 µM (inactive) |
| COc1c(OC(C)=O)c(OC(C)=O)cc2c1-c1ccc(SC)c(=O)cc1C(NC(C)=O)CC2 (stereo not given) | 1.69 µM (inactive) | 4.19 µM (inactive) | 0.583 µM (active) | 36.1 µM (inactive) | 0.685 µM (active) | 0.425 µM (active) | 0.461 µM (active) | 1.81 µM (inactive) | 0.368 µM (active) | 0.163 µM (active) | 0.392 µM (active) | 1.49 µM (inactive) | 2.14 µM (inactive) | 0.416 µM (active) | 0.254 µM (active) | 0.31 µM (active) | 2.91 µM (inactive) | 0.993 µM (active) | 0.42 µM (active) | 0.397 µM (active) |
